Columns and labels:
[1] = test system: Parkinson's disease mouse models (MPTP); assay: Catalepsy test, oral administration; assay type: in vivo, C57BL/6J mice; settings: L-DOPA 15 mg/kg, Nano^DOPA 1.5 mg/kg (given ad libitum), same day as acute MPTP
Description: (§1) Male C57BL/6J mice, 15 weeks old, were used as models as in Test 2. A three-day training period was provided for the models prior to administration to familiarize them with the experimental apparatus. MPTP was administered intraperitoneally at 30 mg/kg every day for the first 5 days (sub-acute). After the administration of MPTP, oral administration of L-DOPA or Nano^DOPA (administered once daily with a tube) was started, and MPTP was administered intraperitoneally to Groups II and III on Day 9, 4 times daily, every 2 hours (acute). MPTP was also administered intraperitoneally in a similar manner to the remaining Group IV on Day 10. The catalepsy test was performed on the same day as the acute administration of MPTP. In addition, the narrow beam walk test (see Test 2 (4)) was performed 2 days after the catalepsy test. All the mice were euthanized the next day of the behavioral test. Each group described above was as follows, and the mice were randomized into the following four groups (n=8). II. MPTP 30 mg/kg, for 5 days (sub-acute)+MPTP 20 mg/kg, 4 times daily, every 2 hours (acute) MPTP 30 mg/kg, for 5 days (sub-acute)+MPTP 20 mg/kg, 4 times daily, every 2 hours (acute)+L-DOPA 15 mg/kg (oral) IV. MPTP 30 mg/kg, for 5 days (sub-acute)+MPTP 20 mg/kg, 4 times daily, every 2 hours (acute)+Nano^DOPA 1.5 mg/kg (given ad libitum) The results are shown in FIG. 21.

[2] = test system: MPTP mouse model of Parkinson's disease; assay: Narrow beam walk test, intraperitoneal treatment; assay type: in vivo, C57BL/6J mice; settings: Day 7; 15 mg/kg (in terms of L-DOPA) intraperitoneal; versus MPTP-administered group
Source text: Male C57BL/6J mice, 15 weeks old, were used (see Chonpathompikunlert, P. (2018). BMC Complementary and Alternative Medicine, 18(103), 1 -12). […] The administration before treatment was to induce PD, and the administration after treatment was to visualize by a behavioral test. […] In this test, motor ability can be accessed by measuring the time until a mouse passes through a narrow bridge with a width of 1 cm, and the time increases with Parkinson's disease.

[3] = test system: Parkinson's disease mouse models (MPTP); assay: Narrow beam walk test, oral administration; assay type: in vivo, C57BL/6J mice; settings: oral L-DOPA 15 mg/kg; versus MPTP-administered group
Description: as §1

[4] = test system: L-DOPA-induced dyskinesia in MPTP mice; assay: Slider test; assay type: in vivo, C57BL/6J mice; settings: Day 17; 25 mg/kg (in terms of L-DOPA) with Benserazide 12 mg/kg for 17 days
Source text: Male C57BL/6J mice, 15 weeks old, were used (see Chonpathompikunlert, P. (2018). BMC Complementary and Alternative Medicine, 18(103), 1 -12). […] The administration before treatment was to induce PD, and the administration after treatment was to visualize by a behavioral test. […] (6) In addition, in a slider test, motor ability can be assessed by measuring the time until each mouse becomes unable to walk on a slope of 26.5 degrees or slides down, and the time is expected to be shortened with Parkinson's disease.

[5] = Body weight change and health during treatment; assay type: in vivo, C57BL/6J mice; settings: 15 mg/kg (in terms of L-DOPA) intraperitoneal for 11 days
Description: Male C57BL/6J mice, 15 weeks old, were used (see Chonpathompikunlert, P. (2018). BMC Complementary and Alternative Medicine, 18(103), 1 -12). A method of intraperitoneally administering 1-methyl-4-phenyl -1,2,3,6-tetrahydropyridine (MPTP) was used, but MPTP was administered before and after treatment with intraperitoneal administration of nanoparticles because of high recovery ability of mice themselves. The administration before treatment was to induce PD, and the administration after treatment was to visualize by a behavioral test.
The mice were randomly divided into the following four groups (n=4). • 1) Saline, for 12 days • 2) MPTP 20 mg/kg, 4 times daily, every 2 hours+saline, for 11 days+MPTP 30 mg/kg, for 3 days • 3) MPTP 20 mg/kg, 4 times daily, every 2 hours+L-DOPA 15 mg/kg, for 11 days+MPTP 30 mg/kg, for 3 days • 4) MPTP 20 mg/kg, 4 times daily, every 2 hours+NPs 15 mg/kg (in terms of L-DOPA), for 11 days+MPTP 30 mg/kg, for 3 days

[6] = test system: L-DOPA-induced dyskinesia in MPTP mice; assay: Abnormal involuntary movement scale test (AIMS test); assay type: in vivo, C57BL/6J mice; settings: Day 17; 25 mg/kg (in terms of L-DOPA) with Benserazide 12 mg/kg for 17 days
Description: Male C57BL/6J mice, 15 weeks old, were used (see Chonpathompikunlert, P. (2018). BMC Complementary and Alternative Medicine, 18(103), 1 -12). […] The administration before treatment was to induce PD, and the administration after treatment was to visualize by a behavioral test. […] An abnormal involuntary movement scale test (AIMS test) was performed as a behavioral test according to the above schedule, and the severity of dyskinesia was scored (0: no AIM, 1: AIM in <50%, 2: AIM in >50%, 3: continuous but stopped by stimulation, 4: continuous). Mice with a strong symptom of dyskinesia have a large score.

[7] = test system: MPTP mouse model of Parkinson's disease; assay: Grid walking test, intraperitoneal treatment; assay type: in vivo, C57BL/6J mice; settings: Day 11, after MPTP administered again; 15 mg/kg (in terms of L-DOPA) intraperitoneal for 11 days
Description: Male C57BL/6J mice, 15 weeks old, were used (see Chonpathompikunlert, P. (2018). BMC Complementary and Alternative Medicine, 18(103), 1 -12). […] The administration before treatment was to induce PD, and the administration after treatment was to visualize by a behavioral test. […] A grid walk test was performed as a behavioral test according to the above schedule, and the number of times the limbs of the mouse slipped into the opening was counted to test the balance ability.

[8] = test system: heart, lung, liver, spleen, and kidney; parameters: species or system mice; settings: mouse, in vivo
Description: After the animals were euthanized, major organs were cut out from mouse models of Parkinson's disease (PD) and L-DOPA-induced dyskinesia (LID) and fixed in a 4% paraformaldehyde solution at 4° C. for 72 hours. These tissues were then processed using an automated tissue processor (TP1020, Leica, Germany). The samples embedded in paraffin were subsequently sliced to a thickness of […] with an automatic microtome and stained with hematoxylin and eosin (H&E) as well as Masson trichrome (MT). Histological evaluation was performed by observation under an optical microscope (DP73, Olympus, Japan) and assessment of the potential toxicity of the PEG-b-P(L-DOPA(OAc)2)-Npa (or Nano^DOPA) during the treatment.

Row | Compound | catalepsy test [1] | time to pass through narrow bridge (narrow beam walk) [2] | foot slip errors in narrow beam walk test [3] | slider test, walking on a slope of 26.5 degrees [4] | body weight after MPTP-induced loss [5] | health damage during the administration [5] | severity of dyskinesia (AIMS observation) [6] | number of slipping in grid walking test [7] | organ damage by H&E staining [8]
1 | N[C@@H](Cc1ccc(O)c(O)c1)C(=O)O [L-DOPA, 3,4-dihydroxy-L-phenylalanine] | no significant difference | improvement in therapeutic effect were continuously and significantly observed | significantly suppressed | sliding down due to involuntary movements of mice was observed only in the L-DOPA-administered group | rapidly recovered | no noticeable health damage was observed | involuntary movements of the oral cavity and twisting of the body axis characteristic of dyskinesia were observed only in the L-DOPA-administered group | no difference was observed in the L-DOPA-administered group compared to the non-treatment group | 
2 | PEG-b-P(L-DOPA(OAc)2) |  |  |  |  |  |  |  |  | does not damage each organ at all

— patent US20220125752A1, “LEVODOPA DERIVATIVE AND USE THEREOF” (UNIVERSITY OF TSUKUBA, priority 2019, published 2022)
